Experimental data reported in US11123337B2, “4-methylsulfonyl-substituted piperidine urea compounds” (MYOKARDIA, INC., priority 2015, dated 2021).

Biological target: bovine cardiac myosin (Bos taurus, UniProt Q9BE39)
Experiment: Myosin activation assay (PK/LDH-coupled ATPase, bovine cardiac myofibrils)
Format: biochemical
Settings: AC20 = concentration at which total response is increased by twenty percent
Summary of the method: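 Values are the concentrations raising the ATPase rate by 20% or 50% over DMSO, from 10-point dose responses fitted with four parameters. Rate is NADH loss at 340 nm via PK/LDH coupling, read 15 min at room temperature, in pH 6.8 PIPES with 50 μM ATP. Bovine cardiac myofibrils were held at pCa ~6 or pCa 10.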

Chain of bovine cardiac myosin (Q9BE39 whole entry): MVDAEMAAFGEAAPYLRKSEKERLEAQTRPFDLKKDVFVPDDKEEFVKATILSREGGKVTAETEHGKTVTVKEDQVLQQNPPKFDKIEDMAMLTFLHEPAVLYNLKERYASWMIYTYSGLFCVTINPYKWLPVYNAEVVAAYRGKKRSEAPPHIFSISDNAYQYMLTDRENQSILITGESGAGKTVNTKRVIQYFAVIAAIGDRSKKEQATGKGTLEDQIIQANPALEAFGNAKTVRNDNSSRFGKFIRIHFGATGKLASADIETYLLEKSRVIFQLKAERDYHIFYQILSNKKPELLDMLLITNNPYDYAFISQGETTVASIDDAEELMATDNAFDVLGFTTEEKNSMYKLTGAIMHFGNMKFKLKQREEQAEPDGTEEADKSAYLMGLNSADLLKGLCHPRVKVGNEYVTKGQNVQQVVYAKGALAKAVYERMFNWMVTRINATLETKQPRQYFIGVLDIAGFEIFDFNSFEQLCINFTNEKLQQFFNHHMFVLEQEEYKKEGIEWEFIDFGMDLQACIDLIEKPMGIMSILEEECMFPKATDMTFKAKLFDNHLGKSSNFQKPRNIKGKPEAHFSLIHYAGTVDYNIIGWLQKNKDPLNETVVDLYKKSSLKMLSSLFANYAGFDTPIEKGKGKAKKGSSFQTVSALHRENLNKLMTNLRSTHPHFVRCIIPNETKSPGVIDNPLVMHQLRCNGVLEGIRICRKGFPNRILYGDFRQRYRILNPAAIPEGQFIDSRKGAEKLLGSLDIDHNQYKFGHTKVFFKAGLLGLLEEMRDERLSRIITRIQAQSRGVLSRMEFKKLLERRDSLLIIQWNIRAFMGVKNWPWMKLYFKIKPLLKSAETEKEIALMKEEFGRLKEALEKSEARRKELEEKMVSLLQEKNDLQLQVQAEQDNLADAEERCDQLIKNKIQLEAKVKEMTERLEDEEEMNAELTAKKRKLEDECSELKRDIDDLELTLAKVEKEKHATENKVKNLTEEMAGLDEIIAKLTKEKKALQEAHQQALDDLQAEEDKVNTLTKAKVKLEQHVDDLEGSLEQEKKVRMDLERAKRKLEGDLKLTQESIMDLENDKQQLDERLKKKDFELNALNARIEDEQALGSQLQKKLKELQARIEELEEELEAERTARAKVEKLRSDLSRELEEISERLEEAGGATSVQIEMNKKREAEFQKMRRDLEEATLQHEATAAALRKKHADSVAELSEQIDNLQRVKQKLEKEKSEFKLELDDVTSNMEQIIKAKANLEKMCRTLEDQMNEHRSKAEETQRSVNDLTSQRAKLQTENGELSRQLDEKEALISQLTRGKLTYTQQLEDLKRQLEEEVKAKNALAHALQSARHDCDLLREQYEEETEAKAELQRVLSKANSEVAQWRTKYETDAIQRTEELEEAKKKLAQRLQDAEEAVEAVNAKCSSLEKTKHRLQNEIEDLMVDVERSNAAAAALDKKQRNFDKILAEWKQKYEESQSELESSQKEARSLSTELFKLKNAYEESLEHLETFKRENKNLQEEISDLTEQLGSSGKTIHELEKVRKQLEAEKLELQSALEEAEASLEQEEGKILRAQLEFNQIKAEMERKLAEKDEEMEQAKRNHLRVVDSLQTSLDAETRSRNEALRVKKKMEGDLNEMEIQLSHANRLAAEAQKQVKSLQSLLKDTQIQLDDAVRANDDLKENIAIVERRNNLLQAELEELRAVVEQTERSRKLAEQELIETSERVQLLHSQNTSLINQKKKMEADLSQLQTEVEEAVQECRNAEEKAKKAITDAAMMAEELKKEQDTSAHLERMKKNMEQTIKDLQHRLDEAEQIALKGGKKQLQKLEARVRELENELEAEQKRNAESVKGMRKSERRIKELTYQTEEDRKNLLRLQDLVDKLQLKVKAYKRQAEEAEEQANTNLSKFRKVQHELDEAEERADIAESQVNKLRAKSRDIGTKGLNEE
Chain of bovine cardiac myosin (P85100 whole entry partner): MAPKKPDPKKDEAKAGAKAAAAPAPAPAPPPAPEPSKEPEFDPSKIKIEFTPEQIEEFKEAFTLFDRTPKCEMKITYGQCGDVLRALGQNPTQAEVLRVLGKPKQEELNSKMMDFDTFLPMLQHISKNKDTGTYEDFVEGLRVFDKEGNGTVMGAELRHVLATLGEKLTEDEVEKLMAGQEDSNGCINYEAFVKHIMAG
Chain of bovine cardiac myosin (Q3SZE5 whole entry partner): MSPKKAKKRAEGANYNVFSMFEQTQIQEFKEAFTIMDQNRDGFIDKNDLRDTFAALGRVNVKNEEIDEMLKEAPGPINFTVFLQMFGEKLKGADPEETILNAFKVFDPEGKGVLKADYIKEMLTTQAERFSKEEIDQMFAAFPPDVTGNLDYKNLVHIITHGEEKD

Row | Compound | Myosin Activation (AC20)
1 | CC(C)(C1CCN(C(=O)Nc2cc[nH]n2)CC1)S(=O)(=O)c1cccc(F)c1 [Compound 147, 4-(2-((3-fluorophenyl)sulfonyl)propan-2-yl)-N-(1H-pyrazol-3-yl)piperidine-1-carboxamide] | + (+ represents myosin activation value AC20 > 5 μM)
2 | COc1ccc(S(=O)(=O)[C@@](C)(F)C2CCN(C(=O)Nc3ccon3)CC2)cn1 [Compound 308, (R)-4-(1-fluoro-1-((6-methoxypyridin-3-yl)sulfonyl)ethyl)-N-(isoxazol-3-yl)piperidine-1-carboxamide] | ++ (++ represents myosin activation value AC20 from 2 μM-5 μM)
3 | O=C(Nc1ccnnc1)N1CCC(C2(S(=O)(=O)c3ccc(C(F)(F)F)cc3)CCC2)CC1 [Compound 165, N-(pyridazin-4-yl)-4-(1-((4-(trifluoromethyl)phenyl)sulfonyl)cyclobutyl)piperidine-1-carboxamide] | +++ (+++ represents myosin activation value AC20 < 2 μM)
4 | COc1ccc(NC(=O)N2CCC(C(C)(C)S(=O)(=O)c3cccc(F)c3)CC2)cn1 [Compound 161, 4-(2-((3-fluorophenyl)sulfonyl)propan-2-yl)-N-(6-methoxypyridin-3-yl)piperidine-1-carboxamide] | + (+ represents myosin activation value AC20 > 5 μM)
5 | C[C@@](F)(C1CCN(C(=O)Nc2ccon2)CC1)S(=O)(=O)c1ccc(C(F)(F)F)nc1 [Compound 309, (S)-4-(1-fluoro-1-((6-(trifluoromethyl)pyridin-3-yl)sulfonyl)ethyl)-N-(isoxazol-3-yl)piperidine-1-carboxamide] | + (+ represents myosin activation value AC20 > 5 μM)
6 | Cn1nc(Cl)cc1S(=O)(=O)C(C)(C)C1CCN(C(=O)Nc2ccc(F)nc2)CC1 [Compound 114, 4-(2-((3-chloro-1-methyl-1H-pyrazol-5-yl)sulfonyl)propan-2-yl)-N-(6-fluoropyridin-3-yl)piperidine-1-carboxamide] | +++ (+++ represents myosin activation value AC20 < 2 μM)
7 | CC(F)(C1CCN(C(=O)Nc2ccc(F)nc2)CC1)S(=O)(=O)c1ccc(C#N)cc1 (stereo not drawn) [Compound 240, 4-(1-((4-cyanophenyl)sulfonyl)-1-fluoroethyl)-N-(6-fluoropyridin-3-yl)piperidine-1-carboxamide] | ++ (++ represents myosin activation value AC20 from 2 μM-5 μM)
8 | Cn1cc(S(=O)(=O)C(C)(F)C2CCN(C(=O)Nc3ccc(F)nc3)CC2)c(C(F)(F)F)n1 (stereo not drawn) [Compound 244, 4-(1-fluoro-1-((1-methyl-3-(trifluoromethyl)-1H-pyrazol-4-yl)sulfonyl)ethyl)-N-(6-fluoropyridin-3-yl)piperidine-1-carboxamide] | + (+ represents myosin activation value AC20 > 5 μM)
9 | CC(F)(C1CCN(C(=O)Nc2cnns2)CC1)S(=O)(=O)c1ccc(C#N)cc1 (stereo not drawn) [Compound 274, 4-(1-((4-cyanophenyl)sulfonyl)-1-fluoroethyl)-N-(1,2,3-thiadiazol-5-yl)piperidine-1-carboxamide] | +++ (+++ represents myosin activation value AC20 < 2 μM)
10 | CC(C)(C1CCN(C(=O)Nc2ccnc(F)c2)CC1)S(=O)(=O)c1cccc(F)c1 [Compound 151, 4-(2-((3-fluorophenyl)sulfonyl)propan-2-yl)-N-(2-fluoropyridin-4-yl)piperidine-1-carboxamide] | ++ (++ represents myosin activation value AC20 from 2 μM-5 μM)
11 | Cn1cc(S(=O)(=O)[C@@](C)(F)C2CCN(C(=O)Nc3cccnc3)CC2)c(C(F)F)n1 [Compound 288, (R)-4-(1-((3-(difluoromethyl)-1-methyl-1H-pyrazol-4-yl)sulfonyl)-1-fluoroethyl)-N-(pyridin-3-yl)piperidine-1-carboxamide] | ++ (++ represents myosin activation value AC20 from 2 μM-5 μM)
12 | Cn1nccc1S(=O)(=O)C(C)(C)C1CCN(C(=O)Nc2ccnnc2)CC1 [Compound 192, 4-(2-((1-methyl-1H-pyrazol-5-yl)sulfonyl)propan-2-yl)-N-(pyridazin-4-yl)piperidine-1-carboxamide] | +++ (+++ represents myosin activation value AC20 < 2 μM)
13 | O=C(Nc1ccns1)N1CCC(C2(S(=O)(=O)c3cccc(F)c3)CC2)CC1 [Compound 217, 4-(1-((3-fluorophenyl)sulfonyl)cyclopropyl)-N-(isothiazol-5-yl)piperidine-1-carboxamide] | +++ (+++ represents myosin activation value AC20 < 2 μM)
14 | N#Cc1cc(C(F)(F)F)ccc1S(=O)(=O)C(F)(F)C1CCN(C(=O)Nc2ccnnc2)CC1 [Compound 3, 4-(((2-Cyano-4-(trifluoromethyl)phenyl)sulfonyl)difluoromethyl)-N-(pyridazin-4-yl)piperidine-1-carboxamide] | +++ (+++ represents myosin activation value AC20 < 2 μM)
15 | Cc1cc(NC(=O)N2CCC([C@](C)(F)S(=O)(=O)c3cc(C(F)(F)F)nn3C)CC2)ccn1 [Compound 232, (R)-4-(1-fluoro-1-((1-methyl-3-(trifluoromethyl)-1H-pyrazol-5-yl)sulfonyl)ethyl)-N-(2-methylpyridin-4-yl)piperidine-1-carboxamide] | +++ (+++ represents myosin activation value AC20 < 2 μM)
16 | Cn1nc(Cl)cc1S(=O)(=O)C(C)(C)C1CCN(C(=O)Nc2ccnnc2)CC1 [Compound 140, 4-(2-((3-chloro-1-methyl-1H-pyrazol-5-yl)sulfonyl)propan-2-yl)-N-(pyridazin-4-yl)piperidine-1-carboxamide] | +++ (+++ represents myosin activation value AC20 < 2 μM)
17 | Cn1nc(C(F)F)cc1S(=O)(=O)C(C)(F)C1CCN(C(=O)Nc2ccnnc2)CC1 (stereo not drawn) [Compound 17, 4-(1-((3-(difluoromethyl)-1-methyl-1H-pyrazol-5-yl)sulfonyl)-1-fluoroethyl)-N-(pyridazin-4-yl)piperidine-1-carboxamide] | +++ (+++ represents myosin activation value AC20 < 2 μM)
18 | Cn1cc(S(=O)(=O)[C@@](C)(F)C2CCN(C(=O)Nc3ccc(C(F)(F)F)nc3)CC2)c(C(F)F)n1 [Compound 261, (R)-4-(1-((3-(difluoromethyl)-1-methyl-1H-pyrazol-4-yl)sulfonyl)-1-fluoroethyl)-N-(6-(trifluoromethyl)pyridin-3-yl)piperidine-1-carboxamide] | + (+ represents myosin activation value AC20 > 5 μM)
19 | COc1ccccc1S(=O)(=O)C(F)(F)C1CCN(C(=O)Nc2ccnnc2)CC1 [Compound 62, 4-(difluoro((2-methoxyphenyl)sulfonyl)methyl)-N-(pyridazin-4-yl)piperidine-1-carboxamide] | + (+ represents myosin activation value AC20 > 5 μM)
20 | Cn1cc(S(=O)(=O)C(F)(F)C2CCN(C(=O)Nc3ccon3)CC2)c(C(F)F)n1 [Compound 82, 4-(((3-(difluoromethyl)-1-methyl-1H-pyrazol-4-yl)sulfonyl)difluoromethyl)-N-(isoxazol-3-yl)piperidine-1-carboxamide] | + (+ represents myosin activation value AC20 > 5 μM)
21 | C[C@@](F)(C1CCN(C(=O)Nc2ccon2)CC1)S(=O)(=O)c1cccc(F)c1 [Compound 285, (S)-4-(1-fluoro-1-((3-fluorophenyl)sulfonyl)ethyl)-N-(isoxazol-3-yl)piperidine-1-carboxamide] | + (+ represents myosin activation value AC20 > 5 μM)
